Source: patent US9144238B2, “Active compound combinations” (BAYER INTELLECTUAL PROPERTY GMBH, priority 2011, dated 2015)
Values joined by “and” are separate entries in the source; they are usually repeats but may differ in a detail not shown here. Equal entries are not always repeated.

How the values were obtained:
[1] = test system: Phytophthora infestans; assay: whole plant or invertebrate; type: in vivo; conditions: tomatoes; for pest or weed control at 1 ppm / pest or weed control at 2 ppm: read-out: Efficacy in % found, Table 4; for pest or weed control at 2 ppm: 2 ppm a.i.; for pest or weed control at 10 ppm: read-out: Efficacy in % found, Table 1
[2] = physchem
Procedure: Measurement of log P values was performed according EEC directive 79/831 Annex V.A8 by HPLC (High Performance Liquid
Chromatography) on reversed phase columns with the following methods:
^[a]Measurement was done at pH 2.3 with 0.1% phosphoric acid and acetonitrile as eluent.

[3] = test system: Alternaria solani; assay: whole plant or invertebrate; type: in vivo; conditions: for Efficacy in % found: in vivo
[4] = test system: Venturia inaequalis; assay: Venturia test (apples)/preventive; type: in vivo; conditions: for pest or weed control at 4 ppm: Table 10, 4 ppm a.i.
Procedure: (§1) To produce a suitable preparation of active compound, 1 part by weight of active compound is mixed with the stated amounts of solvent and emulsifier, and the concentrate is diluted with water to the desired concentration.
To test for preventive activity, young plants are sprayed with the preparation of active compound at the stated rate of application. After the spray coating has dried on, the plants are inoculated with an aqueous conidia suspension of the causal agent of apple scab (Venturia inaequalis) and then remain for 1 day in an incubation cabinet at approximately 20° C. and a relative atmospheric humidity of 100%.
The plants are then placed in a greenhouse at approximately 21° C. and a relative atmospheric humidity of approximately 90%.
(§2) The test is evaluated 10 days after the inoculation. 0% means an efficacy which corresponds to that of the untreated control, while an efficacy of 100% means that no disease is observed.

[5] = test system: Botrytis cinerea; assay: Botrytis test (beans)/preventive; type: in vivo; conditions: Table 12, 5 ppm a.i.
Procedure: as §1
To test for preventive activity, young plants are sprayed with the preparation of active compound. After the spray coating has dried on, 2 small pieces of agar covered with growth of Botrytis cinerea are placed on each leaf. The inoculated plants are placed in a darkened chamber at 20° C. and a relative atmospheric humidity of 100%.
2 days after the inoculation, the size of the lesions on the leaves is evaluated. 0% means an efficacy which corresponds to that of the untreated control, while an efficacy of 100% means that no disease is observed.
as §2

[6] = Venturia inaequalis, 240 h, read-out: Efficacy in % found
[7] = Alternaria solani, 72 h, read-out: Efficacy in % found
[8] = Phytophthora infestans, 72 h, 1 ppm a.i.
[9] = Phytophthora infestans, 72 h, 10 ppm a.i.

Molecule: C[C@@]1(c2ccc(Oc3ccccc3)cc2)OC(=O)N(Nc2ccccc2)C1=O (racemic) [3.9, famoxadone]
- pest or weed control at 2.5 ppm ([1]; Phytophthora infestans, 72 h, read-out: Efficacy in % found, Table 5, 2.5 ppm a.i.): 30%

Molecule: O=C(Cn1nc(C(F)F)cc1C(F)F)N1CCC(c2nc(C3=NOC(c4c(F)ccc(O)c4F)C3)cs2)CC1 (centres unmarked) [2-[3,5-bis(difluoromethyl)-1H-pyrazol-1-yl]-1-(4-{4-[5-(2,6-difluoro-3-hydroxyphenyl)-4,5-dihydro-1,2-oxazol-3-yl]-1,3-thiazol-2-yl}piperidin-1-yl)ethanone]
- chromatographic logP ([2]; pH 2.7): 2.61

Molecule: O=C(Cn1nc(C(F)F)cc1C(F)F)N1CCC(c2nc(C3=NOC(c4c(F)cc(O)cc4F)C3)cs2)CC1 (centres unmarked) [2-[3,5-bis(difluoromethyl)-1H-pyrazol-1-yl]-1-(4-{4-[5-(2,6-difluoro-4-hydroxyphenyl)-4,5-dihydro-1,2-oxazol-3-yl]-1,3-thiazol-2-yl}piperidin-1-yl)ethanone]
- chromatographic logP ([2]; pH 2.7): 2.58

Molecule: Cn1cc(C(=O)Nc2ccc(F)cc2-c2ccc(Cl)c(Cl)c2)c(C(F)F)n1 [2.1, bixafen]
- Efficacy in % found [3]: 60%
- Efficacy in % found ([4]; Table 10, 0.5 ppm a.i.): 26%

Molecule: O=C(NCCc1ncc(C(F)(F)F)cc1Cl)c1ccccc1C(F)(F)F [2.6, fluopyram]
- pest or weed control at 4 ppm [4, 6]: 33%

Molecule: Cn1cc(C(=O)Nc2ccccc2-c2cc(F)c(F)c(F)c2)c(C(F)F)n1 [2.8, fluxapyroxad]
- Efficacy in % found [3]: 63%
- Efficacy in % found ([4]; Table 10, 0.5 ppm a.i.): 54%

Molecule: CC(C)C1C2CCC1c1c(NC(=O)c3cn(C)nc3C(F)F)cccc12 (centres unmarked) [2.12, isopyrazam]
- Efficacy in % found [3]: 60%
- Efficacy in % found ([4]; Table 10, 0.5 ppm a.i.): 76%

Molecule: COC(c1ccc(Cl)cc1Cl)C(C)NC(=O)c1cn(C)nc1C(F)F (centres unmarked) [2.27, N-[1-(2,4-dichlorophenyl)-1-methoxypropan-2-yl]-3-(difluoromethyl)-1-methyl-1H-pyrazole-4-carboxamide]
- pest or weed control at 4 ppm [4, 6]: 87%

Molecule: Cn1cc(C(=O)Nc2cccc3c2C2CCC3C2=C(Cl)Cl)c(C(F)F)n1 (centres unmarked) [2.29, N-[9-(dichloromethylene)-1,2,3,4-tetrahydro-1,4-methanonaphthalen-5-yl]-3-(difluoromethyl)-1-methyl-1H-pyrazole-4-carboxamide]
- pest or weed control at 0.25 ppm [3, 7]: 40%

Molecule: CCCCCCCCc1c(CC)nc2ncnn2c1N [3.1, ametoctradin]
- Efficacy in % found ([1]; Table 1, 10 ppm a.i.): 0%
- Efficacy in % found ([1]; Table 5, 2.5 ppm a.i.): 52%

Molecule: CO/C=C(/C(=O)OC)c1ccccc1Oc1cc(Oc2ccccc2C#N)ncn1 [3.3, azoxystrobin]
- Efficacy in % found ([1]; Table 4, 1 ppm a.i.): 0%
- Efficacy in % found [3]: 9%

Molecule: Cc1ccc(-c2c(Cl)nc(C#N)n2S(=O)(=O)N(C)C)cc1 [3.4, cyazofamid]
- pest or weed control at 0.1 ppm ([1]; Phytophthora infestans, 72 h, read-out: Efficacy in % found, Table 5, 0.1 ppm a.i.): 0%

Molecule: CSC1=N[C@@](C)(c2ccccc2)C(=O)N1Nc1ccccc1 [3.10, fenamidone]
- pest or weed control at 0.25 ppm ([1]; Phytophthora infestans, 72 h, read-out: Efficacy in % found, Table 2, 0.25 ppm a.i.): 6%

Molecule: CO/N=C(/C1=NOCCO1)c1ccccc1Oc1ncnc(Oc2ccccc2Cl)c1F [3.12, fluoxastrobin]
- pest or weed control at 1 ppm [1, 8]: 0%
- pest or weed control at 2 ppm ([1]; Phytophthora infestans, 72 h): 0%
- pest or weed control at 0.5 ppm [3, 7]: 18%

Molecule: COC(=O)N(OC)c1ccccc1COc1ccn(-c2ccc(Cl)cc2)n1 [3.17, pyraclostrobin]
- pest or weed control at 1 ppm [1, 8]: 0%
- pest or weed control at 2 ppm ([1]; Phytophthora infestans, 72 h): 0%
- pest or weed control at 0.25 ppm [3, 7]: 18%

Molecule: CON=C(C(=O)OC)c1ccccc1CON=C(C)c1cccc(C(F)(F)F)c1 [3.22, trifloxystrobin]
- pest or weed control at 1 ppm [1, 8]: 0%
- pest or weed control at 2 ppm ([1]; Phytophthora infestans, 72 h): 0%
- pest or weed control at 0.25 ppm [3, 7]: 18%
- pest or weed control at 0.25 ppm ([4]; Venturia inaequalis, 240 h, Table 11, 0.25 ppm a.i., read-out: Efficacy in % found): 0%

Molecule: Oc1cc(F)c(C2CC(c3csc(C4CCNCC4)n3)=NO2)c(F)c1 (centres unmarked) [4-{4-[5-(2,6-difluoro-4-hydroxyphenyl)-4,5-dihydro-1,2-oxazol-3-yl]-1,3-thiazol-2-yl}piperidinium chloride]
- chromatographic logP ([2]; pH 2.7): 0.98

Molecule: O=C(NCc1ncc(C(F)(F)F)cc1Cl)c1c(Cl)cccc1Cl [4.6, fluopicolide]
- Efficacy in % found ([1]; Table 5, 0.5 ppm a.i.): 12%

Molecule: N#Cc1c(Cl)c(Cl)c(Cl)c(C#N)c1Cl [5.4, chlorothalonil]
- Efficacy in % found [5]: 8%

Molecule: [Cu+2].[OH-].[OH-] [5.5, copper hydroxide]
- Efficacy in % found [3]: 16%

Molecule: [Cl-].[Cu+2].[Cu+2].[OH-].[OH-].[OH-] [5.8, copper oxychloride]
- Efficacy in % found ([1]; Table 2, 5 ppm a.i.): 12%
- Efficacy in % found ([1]; Table 2, 10 ppm a.i.): 10%
- Efficacy in % found [3]: 7%
- Efficacy in % found ([4]; Table 11, 50 ppm a.i.): 54%

Molecule: C#CCOc1ccc(CCNC(=O)C(OCC#C)c2ccc(Cl)cc2)cc1OC (centres unmarked) [9.5, mandipropamid]
- Efficacy in % found ([1]; Table 1, 0.2 ppm a.i.): 0%

Molecule: O=[N+]([O-])c1cc(C(F)(F)F)c(Cl)c([N+](=O)[O-])c1Nc1ncc(C(F)(F)F)cc1Cl [14.4, fluazinam]
- pest or weed control at 10 ppm [1, 9]: 0%

Molecule: CCNC(=O)NC(=O)/C(C#N)=N/OC [15.9, cymoxanil]
- pest or weed control at 10 ppm [1, 9]: 0%

Molecule: OP(O)O [15.41, phosphorous acid]
- Efficacy in % found ([1]; Table 1, 10 ppm a.i.): 0%

Molecule: Cn1c(=O)c2sc3c(=O)n(C)c(=O)c3sc2c1=O [15.60, 2,6-dimethyl-1H,5H-[1,4]dithiino[2,3-c:5,6-c′]dipyrrole-1,3,5,7(2H,6H)-tetrone]
- pest or weed control at 5 ppm ([1]; Phytophthora infestans, 72 h, read-out: Efficacy in % found, Table 2, 5 ppm a.i.): 49%
- pest or weed control at 25 ppm [3, 7]: 29%
- pest or weed control at 25 ppm ([4]; Venturia inaequalis, 240 h, Table 11, 25 ppm a.i., read-out: Efficacy in % found): 54%

Molecule: C#CCOc1cccc(C2CC(c3csc(C4CCN(C(=O)Cn5nc(C(F)F)cc5C(F)F)CC4)n3)=NO2)c1 (centres unmarked) [(I-3), 2-[3,5-bis(difluoromethyl)-1H-pyrazol-1-yl]-1-[4-(4-{5-[3-(prop-2-yn-1-yloxy)phenyl]-4,5-dihydro-1,2-oxazol-3-yl}-1,3-thiazol-2-yl)piperidin-1-yl]ethanone]
- chromatographic logP ([2]; pH 2.7): 3.16
- chromatographic logP ([2]; pH 7.8): 3.24

Molecule: C#CCOc1cc(F)c(C2CC(c3csc(C4CCN(C(=O)Cn5nc(C(F)F)cc5C(F)F)CC4)n3)=NO2)c(F)c1 (centres unmarked) [(I-4), 2-[3,5-bis(difluoromethyl)-1H-pyrazol-1-yl]-1-[4-(4-{5-[2,6-difluoro-4-(prop-2-yn-1-yloxy)phenyl]-4,5-dihydro-1,2-oxazol-3-yl}-1,3-thiazol-2-yl)piperidin-1-yl]ethanone]
- chromatographic logP ([2]; pH 2.7): 3.3

Molecule: C#CCOc1ccc(F)c(C2CC(c3csc(C4CCN(C(=O)Cn5nc(C(F)F)cc5C(F)F)CC4)n3)=NO2)c1F (centres unmarked) [(I-7), 2-[3,5-bis(difluoromethyl)-1H-pyrazol-1-yl]-1-[4-(4-{5-[2,6-difluoro-3-(prop-2-yn-1-yloxy)phenyl]-4,5-dihydro-1,2-oxazol-3-yl}-1,3-thiazol-2-yl)piperidin-1-yl]ethanone]
- chromatographic logP ([2]; pH 2.7): 3.17

Molecule: C#CCOc1ccc(F)cc1C1CC(c2csc(C3CCN(C(=O)Cn4nc(C(F)F)cc4C(F)F)CC3)n2)=NO1 (centres unmarked) [(I-8), 2-[3,5-bis(difluoromethyl)-1H-pyrazol-1-yl]-1-[4-(4-{5-[5-fluoro-2-(prop-2-yn-1-yloxy)phenyl]-4,5-dihydro-1,2-oxazol-3-yl}-1,3-thiazol-2-yl)piperidin-1-yl]ethanone]
- chromatographic logP ([2]; pH 2.7): 3.37
- chromatographic logP ([2]; pH 7.8): 3.44

Molecule: C#CCOc1cc(OC)ccc1C1CC(c2csc(C3CCN(C(=O)Cn4nc(C(F)F)cc4C(F)F)CC3)n2)=NO1 (centres unmarked) [(I-9), 2-[3,5-bis(difluoromethyl)-1H-pyrazol-1-yl]-1-[4-(4-{5-[4-methoxy-2-(prop-2-yn-1-yloxy)phenyl]-4,5-dihydro-1,2-oxazol-3-yl}-1,3-thiazol-2-yl)piperidin-1-yl]ethanone]
- chromatographic logP ([2]; pH 2.7): 3.25
- chromatographic logP ([2]; pH 7.8): 3.2

Molecule: C#CCOc1c(F)cccc1C1CC(c2csc(C3CCN(C(=O)Cn4nc(C(F)F)cc4C(F)F)CC3)n2)=NO1 (centres unmarked) [(I-10), 2-[3,5-bis(difluoromethyl)-1H-pyrazol-1-yl]-1-[4-(4-{5-[3-fluoro-2-(prop-2-yn-1-yloxy)phenyl]-4,5-dihydro-1,2-oxazol-3-yl}-1,3-thiazol-2-yl)piperidin-1-yl]ethanone]
- chromatographic logP ([2]; pH 2.7): 3.37
- chromatographic logP ([2]; pH 7.8): 3.48

Molecule: CC(C)(C)OC(=O)N1CCC(c2nc(C3=NOC(c4c(F)cc(O)cc4F)C3)cs2)CC1 (centres unmarked) [tert-butyl 4-{4-[5-(2,6-difluoro-4-hydroxyphenyl)-4,5-dihydro-1,2-oxazol-3-yl]-1,3-thiazol-2-yl}piperidine-1-carboxylate]
- chromatographic logP ([2]; pH 2.7): 3.24

Molecule: fosetyl-aluminium [15.24]
- Efficacy in % found ([1]; Table 1, 10 ppm a.i.): 0%

Molecule: metiram [5.25]
- Efficacy in % found ([1]; Table 2, 5 ppm a.i.): 12%
- Efficacy in % found ([1]; Table 2, 10 ppm a.i.): 24%
- Efficacy in % found [3]: 36%

Molecule: propamocarb hydrochloride [10.10]
- Efficacy in % found ([1]; Table 2, 5 ppm a.i.): 7%
- Efficacy in % found ([1]; Table 4, 10 ppm a.i.): 18%

Molecule: propineb [5.29]
- Efficacy in % found ([1]; Table 3, 10 ppm a.i.): 24%
- Efficacy in % found [3]: 2% and 0%
